Earlier results in patent publication US7045323B2 (priority 1999, dated 2006).

Assays:
[1] = system: proviral DNA load; conditions: murine model of immunodeficiency; first stage of infection
[2] = system: HIV reverse transcription process

SMILES: N[C@@H](CCC(=O)N[C@@H](CS)C(=O)NCC(=O)O)C(=O)O [GSH, glutathione]
- proviral DNA load [1]: able to decrease the proviral DNA load
- inhibition of the HIV reverse transcription process [2]: can inhibit

SMILES: CC(=O)N[C@@H](CS)C(=O)O [N-acetylcysteine]
- inhibition of the HIV reverse transcription process [2]: can inhibit
